Measured values published in paper PMC5342726, “Identification of small molecule inhibitors of ERCC1-XPF that inhibit DNA repair and potentiate cisplatin efficacy in cancer cells” (Oncotarget, 2016).

Experiments:
ERCC1-XPF [1] = target: T1, ERCC1-XPF (Homo sapiens, UniProt P07992+Q92889); experiment: Rapid dilution experiment for reversible or irreversible binding; format: biochemical; conditions: for recovery of enzymatic activity after rapid dilution: 100-fold enzyme preincubated 30 min with 10 times IC90, diluted 100-fold; for reversibility of binding to ERCC1-XPF: rapid dilution method
T1 construct: made in house; host or cells: Sf9 insect cells, baculovirus (obtained from Aziz Sancar)
T1 sequence (Q92889 1-916): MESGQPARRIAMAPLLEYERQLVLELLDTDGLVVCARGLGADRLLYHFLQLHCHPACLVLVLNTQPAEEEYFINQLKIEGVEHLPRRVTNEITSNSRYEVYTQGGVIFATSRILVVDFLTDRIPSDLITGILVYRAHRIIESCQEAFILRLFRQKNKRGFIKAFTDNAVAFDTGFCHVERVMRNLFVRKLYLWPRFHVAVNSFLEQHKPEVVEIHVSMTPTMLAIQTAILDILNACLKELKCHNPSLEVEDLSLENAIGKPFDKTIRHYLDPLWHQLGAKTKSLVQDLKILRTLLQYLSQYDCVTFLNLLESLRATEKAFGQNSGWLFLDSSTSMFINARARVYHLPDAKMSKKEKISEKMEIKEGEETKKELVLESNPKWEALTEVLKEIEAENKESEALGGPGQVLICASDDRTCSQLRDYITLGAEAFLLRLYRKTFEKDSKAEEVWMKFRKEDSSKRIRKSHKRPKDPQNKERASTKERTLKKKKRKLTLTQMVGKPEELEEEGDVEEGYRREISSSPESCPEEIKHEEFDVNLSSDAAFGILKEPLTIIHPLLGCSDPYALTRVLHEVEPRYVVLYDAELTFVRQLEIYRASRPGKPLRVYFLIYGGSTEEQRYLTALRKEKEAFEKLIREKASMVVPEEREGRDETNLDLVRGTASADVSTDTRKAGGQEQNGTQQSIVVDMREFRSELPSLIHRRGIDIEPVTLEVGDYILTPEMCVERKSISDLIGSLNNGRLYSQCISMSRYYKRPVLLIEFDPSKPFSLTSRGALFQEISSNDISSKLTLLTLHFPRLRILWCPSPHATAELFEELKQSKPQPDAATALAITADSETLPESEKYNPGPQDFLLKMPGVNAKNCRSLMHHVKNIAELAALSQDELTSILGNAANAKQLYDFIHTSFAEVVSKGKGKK
T1 sequence (P07992 1-297): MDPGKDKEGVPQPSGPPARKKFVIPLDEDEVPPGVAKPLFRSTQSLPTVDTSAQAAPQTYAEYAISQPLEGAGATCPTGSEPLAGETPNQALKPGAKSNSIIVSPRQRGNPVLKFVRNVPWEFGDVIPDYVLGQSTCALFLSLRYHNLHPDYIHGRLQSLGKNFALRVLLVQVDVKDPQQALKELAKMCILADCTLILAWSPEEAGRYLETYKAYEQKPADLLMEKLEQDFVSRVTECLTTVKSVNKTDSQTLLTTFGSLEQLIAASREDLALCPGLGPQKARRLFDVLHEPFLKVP
Protocol: Next, to determine reversible or irreversible binding, we used a rapid dilution method. Here, the amount of enzyme (ERCC1-XPF) is increased 100-fold above what is normally used in a reaction and is pre-incubated for 30 minutes with a concentration of the SMI 10-times greater than the IC90 concentration or with vehicle control. After incubation, the enzyme/inhibitor mixture is diluted 100-fold (i.e., to normal reaction conditions) in the reaction buffer with the DNA substrate at normal reaction conditions. A reversible inhibitor dissociates quickly, allowing immediate recovery of enzymatic activity, whereas a slowly reversible inhibitor allows a gradual increase in activity. In contrast, an irreversible inhibitor prevents recovery of any enzymatic activity. […]
Analysis of DNA binding treatment) was used as 100% intrastrand adducts in each […]
Rapid dilution experiments as described previously […]
of the identified compounds – Hit 1 (NSC143099) and Hit comet assay
2 (NSC16168) to ERCC1-XPF. Briefly, in a 10 μl reaction, ERCC1-XPF concentration was increased 100-fold from Repair of interstrand crosslinks (ICLs) normal reaction conditions of 7.5 nM and mixed with 10 was assessed by alkaline comet assay with some times the IC90 concentration of the compound or vehicle modifications. Cells were treated with compound (Hit control (9:1 DMSO-glycerol). After incubation at 37°C 1 or Hit 2) and cisplatin or just cisplatin alone in serum for 30 minutes, 2 μL of the pre-incubate was diluted into a free media. For treatment with compound and cisplatin, 198 μL solution containing the DNA substrate and reaction cells were treated with compound at 15 µM for 2 hours buffer described in the methods section for HTS assay in a 96 and then cisplatin was added (at IC90 concentration for well plate. The 96-well plate was read in a Spectramax M5 the cell line used) to the media and these were incubated repeatedly for 60 minutes. The data was plotted as increase for another 2 hours. […]
Cisplatin intrastrand adduct measurement by of hydrogen peroxide for 15 minutes to induce random ELISA DNA strand breaks. Cells were then trypsinized, pelleted and resuspended in 1% low melting point agarose. Cell […]
ELISA as described with some modifications. […] Equal amounts of DNA were coated on 96 kept in neutralizing solution (0.4 M Tris–HCl, pH 7.5) well DNA binding ELISA plates in binding buffer (1M for 10 minutes. Slides were then stained with SYBR sodium chloride, 50 mM sodium phosphate buffer, pH green (Trevigen) and comets were analyzed using a 7.4, 0.02% sodium azide) and incubated at 4°C overnight. […]
The wells were blocked with 1% BSA in PBS for 1 hour Fifty cells were analyzed per slide using Komet Assay at room temperature. […]

ERCC1-XPF [2] = target: T1, ERCC1-XPF; experiment: EMSA, binding of ERCC1-XPF to DNA; conditions: for effect on binding of purified ERCC1-XPF to DNA: compound titration, concentrations used in further in vitro experiments
Protocol: In order to study if the compounds' inhibitory activity of ERCC1-XPF incision is due to inhibition of DNA binding ability, we performed EMSAs [23]. […] In this assay, we incubated the titrated Hit 1 or 2 respectively with purified ERCC1-XPF on ice and reactions were initiated by the addition of the 5'-[^32P] radiolabeled DNA substrate 37°C. The samples were separated on a 10% native gel and the products were visualized via phosphorimager analysis.
Sciences Core at Karmanos Cancer Institute using DNA Binding-electrophoretic mobility shift assay
was used for testing the effect of compounds on the DNA
in SF9 insect cells using a baculovirus expression system requires metal for DNA incision, MgCl2 was excluded
0.1M EDTA was added to the
Post incubation, glutaraldehyde was added to a final
column, which was initially loaded and washed with a low minutes at 37°C. The reaction was run on a 10% native

| SMILES | recovery of enzymatic activity after rapid dilution (ERCC1-XPF [1]) | reversibility of binding to ERCC1-XPF (ERCC1-XPF [1]) | effect on binding of purified ERCC1-XPF to DNA (ERCC1-XPF [2]) | effect on binding of ERCC1-XPF to DNA at the highest concentrations (ERCC1-XPF [2]; highest concentrations) |
| --- | --- | --- | --- | --- |
| Oc1cc(O)c2c(c1)OC(c1ccc(O)c(O)c1)C(O)C2c1c(O)cc(O)c2c1OC(c1ccc(O)c(O)c1)C(O)C2 (stereo not shown) [NSC143099] | virtually no recovery of the enzymatic activity | binds irreversibly | does not affect the binding of purified ERCC1-XPF to DNA | – |
| Cc1ccc(S(=O)(=O)Oc2cc(S(=O)(=O)O)cc3cc(S(=O)(=O)O)cc(N)c23)cc1 [NSC16168] | recovers slowly | moderately reversible inhibitor | does not affect DNA binding of ERCC1-XPF | minor effect on the DNA binding |
